Assay results from patent publication US8067447B2, “Modulators of glucocorticoid receptor, AP-1, and/or NF-κB activity and use thereof” (Bristol-Myers Squibb Company, priority 2006, dated 2011).
Like-named read-outs stand apart in the source and are kept apart here.

Legend:
[1] = target: T1, human glucocorticoid receptor (Homo sapiens, UniProt P04150); assay: Glucocorticoid Receptor Binding Assay (I), fluorescence polarization competitor kit (Fluormone GS Red); conditions: purified human recombinant full-length GR 2 nM, 1 nM Fluormone GS Red, FP; read-out: GR (Ki, nM) (GR Binding Assay (I))
T1 construct: purified human recombinant full-length glucocorticoid receptor (2 nM); purchased Invitrogen Part #2893
T1 sequence (P04150 1-777): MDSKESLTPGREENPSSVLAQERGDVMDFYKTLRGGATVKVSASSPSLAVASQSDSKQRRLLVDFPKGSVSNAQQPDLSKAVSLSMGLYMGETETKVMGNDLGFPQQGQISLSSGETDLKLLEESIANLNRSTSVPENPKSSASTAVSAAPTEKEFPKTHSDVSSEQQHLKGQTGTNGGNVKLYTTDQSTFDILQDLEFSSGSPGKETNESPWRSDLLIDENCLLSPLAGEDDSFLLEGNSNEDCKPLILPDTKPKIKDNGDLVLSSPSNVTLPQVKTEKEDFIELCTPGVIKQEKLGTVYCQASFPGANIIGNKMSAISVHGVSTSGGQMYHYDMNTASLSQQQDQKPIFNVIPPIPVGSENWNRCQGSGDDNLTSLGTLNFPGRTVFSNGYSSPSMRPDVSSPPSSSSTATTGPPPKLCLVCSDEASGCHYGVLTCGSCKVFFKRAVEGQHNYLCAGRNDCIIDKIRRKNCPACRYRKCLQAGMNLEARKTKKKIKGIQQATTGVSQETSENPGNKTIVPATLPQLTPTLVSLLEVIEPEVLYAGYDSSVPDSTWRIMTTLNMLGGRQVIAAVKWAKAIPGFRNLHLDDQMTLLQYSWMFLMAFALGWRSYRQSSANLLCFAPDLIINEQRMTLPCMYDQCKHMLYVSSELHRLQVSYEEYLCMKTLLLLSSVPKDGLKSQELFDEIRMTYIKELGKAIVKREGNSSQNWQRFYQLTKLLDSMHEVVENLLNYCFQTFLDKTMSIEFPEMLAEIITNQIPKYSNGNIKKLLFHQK
Method: Briefly, purified human recombinant full-length glucocorticoid receptor (2 nM) was mixed with fluorescently labeled glucocorticoid (1 nM Fluormone GS Red) in the presence or absence of test compound. After two hour incubation at room temperature in the dark, the fluorescence polarization (FP) of the samples was measured. […] Test compounds were analyzed in the concentration range from 8.5E-05 μM to 5 μM.

[2] = tested on: AP-1 induced transcriptional activity; assay: Cellular Transrepressional Assay (AP-1 luciferase reporter in A549 cells, PMA-activated); assay type: cell-based; conditions: A549 cells with 7x AP-1 luciferase reporter, 10 ng/ml PMA, read-out: AP-1 (EC50, nM) (Cellular Transrepression Assay)
Method: To measure the ability of test molecules to inhibit AP-1 induced transcriptional activity an A549 cell was utilized which was stably transfected with a plasmid containing 7× AP-1 DNA binding sites (pAP-1-Luc plasmid, Stratagene Co. La Jolla, Calif.) followed by the gene for luciferase. Cells were activated with 10 ng/ml of […] (PMA) plus or minus test molecules for 7 hours. After 7 hours a luciferase reagent was added to measure luciferase enzymatic activity in the cell. After a 10 minute incubation of luciferase reagent with cells, luminescence was measured in a TopCount luminescence counter. Repression of AP-1 activity was calculated as the percentage decrease in the signal induced by PMA alone. Test molecules were analyzed in the concentration range from 0.1 nM to 40 μM. EC50s were determined by using standard curve fitting methods such as Excel fit (Microsoft Co.).

Structure (SMILES)	Ki [1]	EC50 ([2]; Homo sapiens, A549, 7 h)	EC50 ([2]; 7 hours)
CSc1nnc(NC(=O)C(C)(C)C(c2ccccc2)c2ccc3c(cnn3-c3ccc(F)cc3)c2)s1 (stereo not shown) [Example 22, 3-(1-(4-fluorophenyl)-1H-indazol-5-yl)-2,2-dimethyl-N-(5-(methylthio)-1,3,4-thiadiazol-2-yl)-3-phenylpropanamide]	29 nM	840 nM	–
Cn1ccc(NC(=O)C(C)(C)C(c2ccccc2)c2ccc3c(cnn3-c3ccc(F)cc3)c2)n1 (stereo not shown) [Example 4, 3-(1-(4-fluorophenyl)-1H-indazol-5-yl)-2,2-dimethyl-N-(1-methyl-1H-pyrazol-3-yl)-3-phenylpropanamide]	7 nM	12 nM	–
CC(C)(C(=O)Nc1nncs1)C(c1ccccc1)c1ccc2nn(CCCCO)cc2c1 (stereo not shown) [Example 77, 3-(2-(4-hydroxybutyl)-2H-indazol-5-yl)-2,2-dimethyl-3-phenyl-N-(1,3,4-thiadiazol-2-yl)propanamide]	23 nM	951 nM	–
CC(C)(C(=O)Nc1nncs1)C(c1ccccc1)c1ccc2c(cnn2CS(C)(=O)=O)c1 (stereo not shown) [Example 64, 2,2-dimethyl-3-(1-(methylsulfonylmethyl)-1H-indazol-5-yl)-3-phenyl-N-(1,3,4-thiadiazol-2-yl)propanamide]	65 nM	> 10000 nM	–
CC(C)(C(=O)Nc1n[nH]cc1C#N)C(c1ccccc1)c1ccc2c(cnn2-c2ccc(F)cc2)c1 (stereo not shown) [Example 16, N-(4-cyano-1H-pyrazol-3-yl)-3-(1-(4-fluorophenyl)-1H-indazol-5-yl)-2,2-dimethyl-3-phenylpropanamide]	163 nM	> 10000 nM	–
CC(C)(C(=O)Nc1nccs1)C(c1ccccc1)c1ccc2[nH]c(-c3ccccn3)cc2c1 (single isomer, unassigned) [111-enant A, 2,2-Dimethyl-3-phenyl-3-(2-(pyridin-2-yl)-1H-indol-5-yl)-N-(thiazol-2-yl)propanamide]	73 nM	1090 nM	–
Cc1nnc(NC(=O)C(C)(C)C(c2ccccc2)c2ccc3c(cnn3-c3ccc(F)cc3)c2)s1 (stereo not shown) [Example 18, 3-(1-(4-fluorophenyl)-1H-indazol-5-yl)-2,2-dimethyl-N-(5-methyl-1,3,4-thiadiazol-2-yl)-3-phenylpropanamide]	21 nM	141 nM	–
CC(C)(C(=O)NS(C)(=O)=O)C(c1ccccc1)c1ccc2c(cnn2-c2ccc(F)cc2)c1 (stereo not shown) [Example 5, 3-(1-(4-fluorophenyl)-1H-indazol-5-yl)-2,2-dimethyl-N-(methylsulfonyl)-3-phenylpropanamide]	7 nM	1330 nM	–
CC(C)Cn1ncc2cc(C(c3ccccc3)C(C)(C)C(=O)Nc3nncs3)ccc21 (stereo not shown) [Example 70, 3-(1-isobutyl-1H-indazol-5-yl)-2,2-dimethyl-3-phenyl-N-(1,3,4-thiadiazol-2-yl)propanamide]	19 nM	1020 nM	–
CC(C)(C(=O)Nc1nccs1)C(c1ccccc1)c1ccc2[nH]ncc2c1 (stereo not shown) [Example 29, 3-(1H-Indazol-5-yl)-2,2-dimethyl-3-phenyl-N-(thiazol-2-yl)propanamide]	7.8 nM	126 nM	–
CC(C)(C(=O)Nc1nccs1)C(c1ccccc1)c1ccc2[nH]c(-c3ccccn3)cc2c1 (single isomer, unassigned) [111-enant B, 2,2-Dimethyl-3-phenyl-3-(2-(pyridin-2-yl)-1H-indol-5-yl)-N-(thiazol-2-yl)propanamide]	25 nM	–	777 nM
CC(C)(C(=O)Nc1nc[nH]n1)C(c1ccccc1)c1ccc2c(cnn2-c2ccc(F)cc2)c1 (stereo not shown) [Example 13, 3-(1-(4-fluorophenyl)-1H-indazol-5-yl)-2,2-dimethyl-3-phenyl-N-(1H-1,2,4-triazol-3-yl)propanamide]	11 nM	17 nM	–
CC(C)(C(=O)Nc1ccsc1)C(c1ccccc1)c1ccc2c(cnn2-c2ccc(F)cc2)c1 (stereo not shown) [Example 11, 3-(1-(4-fluorophenyl)-1H-indazol-5-yl)-2,2-dimethyl-3-phenyl-N-(thiophen-3-yl)propanamide]	11 nM	73 nM	–
CCOC(=O)Cc1csc(NC(=O)C(C)(C)C(c2ccccc2)c2ccc3c(cnn3-c3ccc(F)cc3)c2)n1 (stereo not shown) [Example 28, ethyl 2-(2-(3-(1-(4-fluorophenyl)-1H-indazol-5-yl)-2,2-dimethyl-3-phenylpropanamido)thiazol-4-yl)acetate]	20 nM	647 nM	–
CC(C)(C(=O)Nc1nnc(C2CC2)s1)C(c1ccccc1)c1ccc2c(cnn2-c2ccc(F)cc2)c1 (stereo not shown) [Example 21, N-(5-cyclopropyl-1,3,4-thiadiazol-2-yl)-3-(1-(4-fluorophenyl)-1H-indazole-5-yl)-2,2-dimethyl-3-phenylpropanamide]	12 nM	155 nM	–

Results, then the molecule that gave them:

Ki [1]	EC50 ([2]; Homo sapiens, A549, 7 h)	EC50 ([2]; 7 hours)	Structure (SMILES)
10 nM	2480 nM	–	CC(C)(C(=O)Nc1nccs1)C(c1ccccc1)c1ccc2c(cnn2-c2ccccn2)c1 (stereo not shown) [Example 79, 2,2-dimethyl-3-phenyl-3-(1-(pyridin-2-yl)-1H-indazol-5-yl)-N-(thiazol-2-yl)propanamide]
8.1 nM	127 nM	–	CC(C)(C(=O)Nc1nncs1)C(c1ccccc1)c1ccc2c(cnn2-c2ccccn2)c1 (stereo not shown) [Example 80, 2,2-dimethyl-3-phenyl-3-(1-(pyridin-2-yl)-1H-indazol-5-yl)-N-(1,3,4-thiadiazol-2-yl)propanamide]
8.8 nM	230 nM	–	COc1ccc(-n2ncc3cc(C(c4ccccc4)C(C)(C)C(=O)Nc4nncs4)ccc32)cc1 (stereo not shown) [Example 83, 3-(1-(4-methoxyphenyl)-1H-indazol-5-yl)-2,2-dimethyl-3-phenyl-N-(1,3,4-thiadiazol-2-yl)propanamide]
29 nM	956 nM	–	CC(C)(C(=O)Nc1nncs1)C(c1ccccc1)c1ccc2c(cnn2-c2ccc(Br)cc2)c1 (stereo not shown) [Example 91, 3-(1-(4-bromophenyl)-1H-indazol-5-yl)-2,2-dimethyl-3-phenyl-N-(1,3,4-thiadiazol-2-yl)propanamide]
13 nM	220 nM	–	CC(C)(C(=O)Nc1nccs1)C(c1ccccc1)c1ccc2c(ccn2-c2ccc(F)cc2)c1 (stereo not shown) [Example 110, 3-(1-(4-Fluorophenyl)-1H-indol-5-yl)-2,2-dimethyl-3-phenyl-N-(thiazol-2-yl)propanamide]
146 nM	2130 nM	–	Cc1ccc(-c2cc3cc(C(c4ccccc4)C(C)(C)C(=O)Nc4nccs4)ccc3[nH]2)cc1 (stereo not shown) [Example 119, 2,2-dimethyl-3-phenyl-N-(thiazol-2-yl)-3-(2-p-tolyl-1H-indol-5-yl)propanamide]
43 nM	3260 nM	–	CC(C)(C(=O)Nc1nncs1)C(c1ccccc1)c1ccc2[nH]c(-c3ccncc3)cc2c1 (stereo not shown) [Example 116, 2,2-dimethyl-3-phenyl-3-(2-(pyridin-4-yl)-1H-indol-5-yl)-N-(1,3,4-thiadiazol-2-yl)propanamide]
7.2 nM	306 nM	–	CC(C)(C(=O)Nc1nncs1)C(c1ccccc1)c1ccc2c(cnn2-c2ccc(O)cc2)c1 (stereo not shown) [Example 84, 3-(1-(4-hydroxyphenyl)-1H-indazol-5-yl)-2,2-dimethyl-3-phenyl-N-(1,3,4-thiadiazol-2-yl)propanamide]
6.6 nM	1200 nM	–	CC(C)(C(=O)Nc1nccs1)C(c1ccccc1)c1ccc2[nH]cc(C#N)c2c1 (stereo not shown) [Example 108, 3-(3-Cyano-1H-indol-5-yl)-2,2-dimethyl-3-phenyl-N-(thiazol-2-yl)propanamide]
26 nM	3640 nM	–	CC(C)(C(=O)Nc1nccs1)C(c1ccccc1)c1ccc2[nH]c(-c3ccncc3)cc2c1 (stereo not shown) [Example 115, 2,2-dimethyl-3-phenyl-3-(2-(pyridin-4-yl)-1H-indol-5-yl)-N-(thiazol-2-yl)propanamide]
85 nM	> 10000 nM	–	CC(C)(C(=O)Nc1nncs1)C(c1ccccc1)c1ccc2c(cnn2-c2ccc(C(F)(F)F)cc2)c1 (stereo not shown) [Example 90, 2,2-dimethyl-3-phenyl-N-(1,3,4-thiadiazol-2-yl)-3-(1-(4-(trifluoro-methyl)phenyl)-1H-indazol-5-yl)propanamide]
